# Data taken from PMC6271477, “Effects of Single Amino Acid Substitution on the Biophysical Properties and Biological Activities of an Amphipathic α-Helical Antibacterial Peptide Against Gram-Negative Bacteria” (Molecules, 2014).
# Where two headings read alike, the source gives them in different places.
# Columns and labels:
# [1] = tested on: P. aeruginosa ATCC27853; format: cell-based
# Protocol: (§1) Minimal inhibitory concentrations (MIC) were determined using a broth dilution method. Briefly, bacteria were grown overnight at 37 °C in Mueller–Hinton (MH) Broth, diluted in the same medium and transferred into 96-well microtiter plates (90 μL/well). Peptides were serially diluted using 0.2% bovine serum albumin containing 0.01% acetic acid and added to the microtiter plates in a volume of 10 μL per well to give a final concentration of 5 × 10^5 CFU/mL. MICs were defined as the lowest peptide concentration that inhibited bacterial growth after incubation for 24 h at 37 °C.
# [2] = tested on: E. coli ATCC25922; format: cell-based
# Protocol: as §1
# [3] = tested on: P. aeruginosa H188; format: cell-based
# Protocol: as §1
# [4] = tested on: E. coli Clinical Isolate; format: cell-based
# Protocol: as §1
# [5] = Tryptophan fluorescence, binding to lipid vesicles; settings: for Tryptophan fluorescence emission maximum: excitation 280 nm
# Protocol: Upon peptide diffusion into the cytoplasmic membrane, evidence of selective interaction between peptides with bacterial versus mammalian cytoplasmic membrane was illustrated by the binding events of the peptides to anionic or zwitterionic lipid vesicles. […] Lipid/peptide (L/P) ratios were maintained high enough at low peptide concentration (2 μM) in order to mimic the initial steps of peptide-membrane binding. The spectra were recorded as shown in Supplementary Figure S1. […] The significant blue shifts of Δλmax (17 to 23 nm) for all peptides upon exposure to PC/PG vesicles indicated a membrane partition state of Trp in negatively charged vesicles containing 30% anionic lipids (PG).
# Unilamellar vesicles were prepared by a standard procedure with either PC/PG (7:3, w/w) or PC/cholesterol (8:1, w/w) as described previously. Briefly, the desired mixtures of lipids were dissolved in a chloroform/methanol mixture (2:1, v/v), dried under nitrogen and then lyophilized for 24 h to remove traces of organic solvent. Dry lipid films were suspended in 10 mM HEPES buffer containing 150 mM NaCl (pH 7.4) by vortex mixing. After five freeze-thawing cycles, the suspension was extruded 15 times through double polycarbonate membranes with 0.1 μm diameter pores on an Avanti mini-extruder apparatus. The lipid concentration was determined by phosphorus analysis as previously reported.
# (§2) Fluorescence emission spectra of peptide Trp residues were monitored by a Shimadzu RF-5301 spectrofluorometer. The excitation of wavelength was set as 280 nm and the emission spectra of each peptide, with or without lipid vesicles, were recorded between 300 and 450 nm. Thus three curves were recorded for each peptide, in HEPES buffer or with either PC/PG vesicles or PC/cholesterol vesicles. The blue shift of Trp residues in vesicles were referred to in buffer condition. The final concentrations of peptide and lipid were 2 μM and 100 μM (1/50), respectively.
# [6] = Tryptophan fluorescence in HEPES buffer; format: physicochemical; settings: peptide 2 μM, excitation 280 nm
# Excerpt: Upon peptide diffusion into the cytoplasmic membrane, evidence of selective interaction between peptides with bacterial versus mammalian cytoplasmic membrane was illustrated by the binding events of the peptides to anionic or zwitterionic lipid vesicles. The repositioning of the tryptophan indole group in an environment of reduced polarity upon membrane binding results in a blue shift in the fluorescence […] maximum coupled with an enhancement of emission intensity. Lipid/peptide (L/P) ratios were maintained high enough at low peptide concentration (2 μM) in order to mimic the initial steps of peptide-membrane binding. The spectra were recorded as shown in Supplementary Figure S1. […] The significant blue shifts of Δλmax (17 to 23 nm) for all peptides upon exposure to PC/PG vesicles indicated a membrane partition state of Trp in negatively charged vesicles containing 30% anionic lipids (PG).
# as §2
# [7] = CD spectroscopy, helicity in benign buffer and in 50% TFE; format: physicochemical; settings: for [θ]222, mean residue molar ellipticity, benign / [θ]222, mean residue molar ellipticity, 50% TFE: CD at 222 nm, peptide 75 μM; for [θ]222, mean residue molar ellipticity, benign / [θ]222, mean residue molar ellipticity, 50% TFE / % helix, 50% TFE: 25 °C; for [θ]222, mean residue molar ellipticity, benign: KP buffer (100 mM KCl, 50 mM K2HPO4/KH2PO4, pH 7.0); for [θ]222, mean residue molar ellipticity, 50% TFE / % helix, 50% TFE: KP buffer diluted 1:1 (v/v) with TFE; for % helix, 50% TFE / % helix, benign: relative to the molar ellipticity of peptide V16E in 50% TFE; for % helix, benign: KP buffer pH 7.0, 25 °C
# Protocol: The secondary structures of peptides were determined in benign buffer and in a hydrophobic environment (50% trifluoroethanol, TFE) to mimic the hydrophobic environment of the membrane. […] The principle of side chain interaction at the i to i + 3 and i to i + 4 positions has been used to promote α-helix stability, for example, the incorporation of Lys and Glu residues to stabilize electrostatic attractions. Thus, the helicity of peptide V16E in the presence of 50% TFE that presented the greatest value among all analogs should rely on the contribution of the electrostatic attraction of the side chain of K13 and E16, which stabilizes the helix. The relative helicity is 100% for peptide V16E in 50% TFE, showing the importance of the salt bridges of K13 and E16 to stabilize the helical structure. In general, subtle side-chain alterations by single amino acid substitutions made no significant changes on secondary structures both in aqueous and in hydrophobic environments (Table 2).
# Circular dichroism spectra were measured with a 0.02 cm path length quartz cuvette on a Jasco J-810 spectropolarimeter (Jasco, Tokyo, Japan) at 25 °C. Data were collected from 250 to 190 nm at a sensitivity of 100 millidegrees, response time of 1 s, bandwidth of 1.0 nm and a scan speed of 100 nm/min. Peptides were measured at a concentration of 75 μM in a benign buffer (50 mM KH2PO4/K2HPO4, 100 mM KCl, pH 7) or the benign buffer mixed with 50% 2,2,2-trifluoroethanol (TFE). The mean residue molar ellipticities were calculated using the equation [θ] = θ/10lcMn, where θ is the ellipticity in millidegrees, l is the optical path length of the cuvette in centimeters, cM is the peptide concentration in mole/liter and n is the number of residues in the peptide.
# [8] = Analytical RP-HPLC retention time as a measure of peptide hydrophobicity; format: physicochemical; settings: RP-HPLC at 25 °C, Zorbax 300 SB-C8 column, linear AB gradient, A 0.1% aqueous TFA, B 0.1% TFA in acetonitrile, 1 mL/min, detection at 210 nm
# Protocol: Among substitutions, the retention times ranged from 32.2 min (peptide V16K) to 40.4 min (peptide V16L), which reflect the pure effects of single amino acid substitutions. Thus, the retention times of peptides reflect the relative hydrophobicity of side chains. Consistent with previous studies, the hydrophobicity of peptide analogs was generally in the following order: Lys < Gly < Ser < Ala < Val < Leu. Glu-substituted peptide was an exception, as it contains a negatively-charged side chain and this should decrease the hydrophobicity of the peptide dramatically.
# Peptides were analyzed on a Shimadzu LC-20A HPLC using a Zorbax 300 SB-C8 column (150 ° 4.6 mm i.d., 5 μm particle size, 300 Å pore size) from Agilent Technologies using a linear AB gradient and a flow rate of 1 mL/min, where solvents A and B were as described above. Absorbance signals of peptides were detected at 210 nm.
# [9] = PC/PG (7:3, w/w) vesicles versus HEPES buffer, lipid:peptide 50:1, peptide 2 μM
# [10] = PC/PG (7:3, w/w) vesicles, lipid and peptide in a molar ratio of 50:1, peptide 2 μM, lipid 100 μM
# [11] = PC/cholesterol (8:1, w/w) vesicles versus HEPES buffer, peptide 2 μM, lipid 100 μM
# [12] = PC/cholesterol (8:1, w/w) vesicles, peptide 2 μM, lipid 100 μM
Molecule,"MIC ([1]; ATCC27853, 24 h)","MIC ([2]; ATCC25922, 24 h)","MIC ([3]; H188, 24 h)","MIC ([4]; Clinical Isolate, 24 h)","Blue shift in emission maximum [5, 9]","Tryptophan fluorescence emission maximum [5, 10]","Blue shift in emission maximum [5, 11]","Tryptophan fluorescence emission maximum [5, 12]",Tryptophan fluorescence emission maximum [6],"[θ]222, mean residue molar ellipticity, benign [7]","[θ]222, mean residue molar ellipticity, 50% TFE [7]","% helix, 50% TFE [7]","% helix, benign [7]","tR, retention time during RP-HPLC (relative hydrophobicity) [8]","MIC ([1]; P. aeruginosa ATCC27853, MH broth, 5 × 10^5 CFU/mL, 24 h at 37 °C)","MIC ([2]; E. coli ATCC25922, MH broth, 5 × 10^5 CFU/mL, 24 h at 37 °C)","MIC ([3]; P. aeruginosa H188, MH broth, 5 × 10^5 CFU/mL, 24 h at 37 °C)","MIC ([4]; E. coli Clinical Isolate, MH broth, 5 × 10^5 CFU/mL, 24 h at 37 °C)"
Ac-KWKSFLKTFKSAKKTKLHTALKAISS-NH2 [Peptide V16K],32 µg/mL,32 µg/mL,16 µg/mL,8 µg/mL,21 nm,329 nm,1 nm,349 nm,350 nm,"−1,990 degree·cm^2·dmol^−^1","−29,313 degree·cm^2·dmol^−^1",97.5%,6.6%,32.2 min,–,–,–,–
CC[C@H](C)[C@H](NC(=O)[C@H](C)NC(=O)[C@H](CCCCN)NC(=O)[C@H](CC(C)C)NC(=O)[C@H](C)NC(=O)[C@@H](NC(=O)[C@H](Cc1cnc[nH]1)NC(=O)[C@H](CC(C)C)NC(=O)[C@@H](NC(=O)[C@@H](NC(=O)[C@H](CCCCN)NC(=O)[C@H](CCCCN)NC(=O)[C@H](C)NC(=O)[C@H](CO)NC(=O)[C@H](CCCCN)NC(=O)[C@H](Cc1ccccc1)NC(=O)[C@@H](NC(=O)[C@H](CCCCN)NC(=O)[C@H](CC(C)C)NC(=O)[C@H](Cc1ccccc1)NC(=O)[C@H](CO)NC(=O)[C@H](CCCCN)NC(=O)[C@H](Cc1c[nH]c2ccccc12)NC(=O)[C@H](CCCCN)NC(C)=O)[C@@H](C)O)[C@@H](C)O)C(C)C)[C@@H](C)O)C(=O)N[C@@H](CO)C(=O)N[C@@H](CO)C(N)=O [P],–,–,–,–,22 nm,328 nm,1 nm,349 nm,350 nm,"−2,592 degree·cm^2·dmol^−^1","−29,726 degree·cm^2·dmol^−^1",98.9%,8.6%,38.2 min,4 µg/mL,1 µg/mL,4 µg/mL,1 µg/mL
